Key:
[1] = test system: A498; assay: Growth inhibition of human A498 cells incubated for 48 hrs by sulforhodamine B assay; type: functional; settings: A498, 48 h
[2] = test system: RPMI-8226; assay: Growth inhibition of human RPMI8226 cells incubated for 48 hrs by sulforhodamine B assay; type: functional; settings: RPMI-8226, 48 h
[3] = test system: M14; assay: Growth inhibition of human M14 cells incubated for 48 hrs by sulforhodamine B assay; type: functional; settings: M14, 48 h
[4] = test system: UACC-62; assay: Growth inhibition of human UACC62 cells incubated for 48 hrs by sulforhodamine B assay; type: functional; settings: UACC-62, 48 h
[5] = test system: SNB-75; assay: Growth inhibition of human SNB75 cells incubated for 48 hrs by sulforhodamine B assay; type: functional; settings: SNB-75, 48 h
[6] = test system: Escherichia coli; assay: Induction of Escherichia coli genomic DNA cleavage after 1 hr by agarose gel electrophoresis method
[7] = test system: SF-295; assay: Growth inhibition of human SF295 cells incubated for 48 hrs by sulforhodamine B assay; type: functional; settings: SF-295, 48 h
[8] = test system: HCT-15; assay: Growth inhibition of human HCT15 cells incubated for 48 hrs by sulforhodamine B assay; type: functional; settings: HCT-15, 48 h
[9] = test system: PC-3; assay: Growth inhibition of human PC3 cells incubated for 48 hrs by sulforhodamine B assay; type: functional; settings: PC-3, 48 h
[10] = organism: Homo sapiens; assay: Inhibition of PTK in human MCF7 cells at 1 uM preincubated for 2 hrs followed by poly-Glu-Tyr substrate addition by ELISA relative to control; type: cell-based
[11] = test system: T47D; assay: Growth inhibition of human T47D cells incubated for 48 hrs by sulforhodamine B assay; type: functional
[12] = test system: COLO 205; assay: Growth inhibition of human COLO205 cells incubated for 48 hrs by sulforhodamine B assay; type: functional; settings: COLO 205, 48 h
[13] = test system: MDA-MB-435; assay: Growth inhibition of human MDA-MB-435 cells incubated for 48 hrs by sulforhodamine B assay; type: functional; settings: MDA-MB-435, 48 h
[14] = test system: MOLT-4; assay: Growth inhibition of human MOLT4 cells incubated for 48 hrs by sulforhodamine B assay; type: functional; settings: MOLT-4, 48 h
[15] = test system: HOP-92; assay: Growth inhibition of human HOP92 cells incubated for 48 hrs by sulforhodamine B assay; type: functional; settings: HOP-92, 48 h
[16] = test system: 786-0; assay: Growth inhibition of human 786-O cells incubated for 48 hrs by sulforhodamine B assay; type: functional; settings: 786-0, 48 h
[17] = test system: MDA-MB-231; assay: Growth inhibition of human MDA-MB-231 cells incubated for 48 hrs by sulforhodamine B assay; type: functional; settings: MDA-MB-231, 48 h
[18] = Inhibition of PTK in human MCF7 cells preincubated for 2 hrs followed by poly-Glu-Tyr substrate addition by ELISA; type: cell-based
[19] = Safety index, ratio of compound IC50 to 5-fluorouracil IC50 for human WI38 cells; type: ADME, cell-based; settings: WI-38 cells, read-out: Ratio IC50
[20] = Safety index, ratio of compound IC50 to 5-fluorouracil IC50 for human WISH cells; type: ADME, cell-based; settings: read-out: Ratio IC50

| Compound | GI50 [1] | GI50 [2] | GI50 [3] | GI50 [4] | GI50 [5] | Activity [6] | GI50 [7] | GI50 [8] | GI50 [9] | inhibition [10] | GI50 [11] | GI50 [12] | GI50 [13] | GI50 [14] | GI50 [15] | GI50 [16] | GI50 [17] | IC50 [18] | selectivity ratio [19] | selectivity ratio [20] |
| --- | --- | --- | --- | --- | --- | --- | --- | --- | --- | --- | --- | --- | --- | --- | --- | --- | --- | --- | --- | --- |
| COc1cc(OC)cc(-c2ccc(-c3ccc(C(=N)N)cc3)s2)c1 | 1730 nM | 1460 nM | 1730 nM | 1870 nM | 1580 nM | Dose-dependent effect | 1820 nM | 1220 nM | 1800 nM | 19 to 36% | 1650 nM | 1330 nM | 1700 nM | 1650 nM | 1750 nM | 1870 nM | 2080 nM |  |  |  |
| COc1ccc(-c2ccc(-c3ccc(C(=N)N)c(F)c3)s2)cc1 | 6580 nM | 2510 nM | 1900 nM | 1820 nM | 10700 nM | Dose-dependent effect |  | 2580 nM | 4050 nM | 66% | 2920 nM | 1780 nM | 1830 nM | 3260 nM | 1380 nM | 3930 nM | 2750 nM | 920 nM |  |  |
| N=C(N)c1ccc(-c2ccc(-c3ccc(F)cc3)s2)cc1 | 1420 nM | 799 nM | 1600 nM | 1650 nM | 1650 nM | Dose-dependent effect | 1660 nM | 252 nM | 1590 nM | 19 to 36% | 1200 nM | 204 nM | 1660 nM | 1580 nM | 1540 nM | 1470 nM | 1560 nM |  |  |  |
| COc1cc(OC)cc(-c2ccc(-c3ccc(C(=N)N)c(F)c3)s2)c1 | 1330 nM | 246 nM | 184 nM | 1440 nM | 1300 nM | Dose-dependent effect | 1590 nM | 196 nM | 1300 nM | 74% |  | 208 nM | 194 nM | 326 nM | 665 nM | 174 nM |  | 877 nM |  |  |
| N=C(N)c1ccc(-c2ccc(-c3ccc(Cl)cc3)s2)cc1F | 1380 nM | 248 nM | 179 nM | 218 nM | 165 nM | Dose-dependent effect | 691 nM | 172 nM | 394 nM | 88% |  | 200 nM | 163 nM | 243 nM | 589 nM | 192 nM |  | 107 nM | 6 | 9 |
| N=C(N)c1ccc(-c2ccc(-c3ccccc3)s2)cc1F | 12800 nM | 2780 nM | 2120 nM | 10300 nM | 10500 nM | Dose-dependent effect |  | 4620 nM | 4180 nM | 19 to 36% | 5130 nM | 1820 nM | 2180 nM | 4400 nM | 1310 nM | 6020 nM | 3340 nM |  |  |  |
| N=C(N)c1ccc(-c2ccc(-c3ccc(Cl)cc3)s2)cc1 | 191 nM | 194 nM | 172 nM | 178 nM | 157 nM | Dose-dependent effect | 171 nM | 171 nM | 164 nM | 98% | 179 nM | 203 nM | 172 nM | 207 nM | 156 nM | 178 nM | 184 nM | 13 nM |  |  |

From ChEMBL document CHEMBL4007388, “Synthesis and antiproliferative activity of monocationic arylthiophene derivatives” (Eur J Med Chem, 2017)
